Test results from article PMC11208146, “Molecular basis for transposase activation by a dedicated AAA+ ATPase” (Nature, 2024).

Columns and labels:
Assay type in all cases: binding
[1] = biological target: T1, IstA–IstB–STC holo-transpososome (Geobacillus stearothermophilus, UniProt Q45618+Q45619, Q45619:E167Q, form not given); test: cryo-EM structure, focused refinement of core, […] Å; details: assembled with 1 mM ATP, 5 mM MgCl2, pH 7.5, strand-transfer DNA; IstB monomers 1a and 1a' contacting IstA
T1 construct: full-length IstB (His6-MBP cleaved) with full-length IstA (C-terminal MBP-His6 cleaved by TEV), E. coli; in the structure one IstA tetramer, two IstB decamers and strand-transfer DNA, about 1 MDa; IstA Glu209/Tyr213 contact the nucleotide of IstB 1a/1a'

[2] = biological target: T1, IstA–IstB–STC holo-transpososome; test: cryo-EM structure, […] Å; details: assembled with 1 mM ATP, 5 mM MgCl2, pH 7.5, strand-transfer DNA; internal IstB-IstB sites (e.g. 1b)
IstB = biological target: T2, IstB (Geobacillus stearothermophilus, UniProt Q45619); test: cryo-EM structure, […] Å; details: 5 mM MgCl2, 1 mM ATP, pH 7.5, 60 bp target DNA; eight complete sites at IstB-IstB interfaces
T2 construct: full-length; His6-MBP tag cleaved (PreScission); E. coli BL21 codon-plus (DE3) RIL; pentamer of dimers (decamer) on 60 bp target DNA

Structure (SMILES) | cryo-EM structure, focused refinement of core, 3.2 Å [1] | cryo-EM structure, 3.6 Å [2] | cryo-EM structure, 3.2 Å (IstB)
Nc1ncnc2c1ncn2[C@@H]1O[C@H](COP(=O)(O)OP(=O)(O)O)[C@@H](O)[C@H]1O [ADP] | revealed that the density in these active sites is most consistent with ADP | – | –
Nc1ncnc2c1ncn2[C@@H]1O[C@H](COP(=O)(O)OP(=O)(O)OP(=O)(O)O)[C@@H](O)[C@H]1O [ATP] | – | other subunits (1b, bound to ATP, shown on the right for comparison) | Close inspection of the EM map showed clear density maps for ATP in all binding pockets
